Literature values in US20160143911A1, “STABLE AND WATER SOLUBLE PHARMACEUTICAL COMPOSITIONS COMPRISING PEMETREXED” (SYNTHON B.V., priority 2013, published 2016).

Details: free diacid form

Q: With Nc1nc2[nH]cc(CCc3ccc(C(=O)N[C@@H](CCC(=O)O)C(=O)O)cc3)c2c(=O)[nH]1 [pemetrexed diacid, N-[4-[2-(2-amino-4,7-dihydro-4-oxo-1H-pyrrolo [2,3-d]pyrimidin-5-yl)ethyl]benzoyl]-L-glutamic acid] as the compound, how does the Solubility in water read?
A: only sparingly soluble in water
